Results taken from patent publication US8765977B2, “Hydroxylated contrast enhancement agents and imaging method” (General Electric Company, priority 2010, dated 2014).

Experiment: Ascorbic acid oxidation assay
Format: physicochemical
Conditions: 20 μM chelate (30 mol %), 67 μM ascorbic acid in PBS, 45 minutes, FIG. 1
Experimental: The UV-Vis spectrum of an ascorbic acid solution (67 μM, 12 μg·mL-1) in phosphate buffered saline (PBS) (3 mL) was recorded. The absorbance intensity at λmax=265 nm was observed. An aliquot (30 μL) of iron chelate of ethylenediaminetetraacetic acid (FeEDTA) in PBS (2 mM, 0.7 mg·mL-1) was added to afford a catalytic quantity of FeEDTA (20 μM, 30 mol %) with respect to ascorbic acid. The absorbance intensity (λmax=265 nm) was recorded at intervals of 1 minute for a period of 45 minutes and the data normalized to the t0 absorbance. The experiment was then repeated identically using iron chelate complex FeHBEDP(OH)3 (20 μM, 30 mol %).

With `O=C([O-])CN(CCN(CC(=O)[O-])CC(=O)[O-])CC(=O)[O-].[Fe+3]` [FeEDTA, iron chelate of ethylenediaminetetraacetic acid] the “consumption of ascorbic acid” value was “consumes ascorbic acid completely”.
